Experimental data: BindingDB's records for doi:10.1016/j.bmcl.2009.04.079 (China Pharmaceutical University, 2009)
Counter-ions that a name gives are not always drawn.

Experiment: Inhibition of NHE1-mediated rat platelet swelling

IC50	SMILES
3.6 nM	COc1ccc(CN2CCN(Cc3ccc(C(=O)NC(=N)N)cc3[N+](=O)[O-])CC2)c(OC)c1OC
248 nM	COc1ccc(CN2CCN(Cc3ccc(C(=O)NC(=N)N)cc3Br)CC2)c(OC)c1OC [3-bromo-N-(diaminomethylene)-4-((4-(2,3,4-trimethoxybenzyl)piperazin-1-yl)methyl)benzamide hydrochloride]
11.1 nM	COc1ccc(CN2CCN(Cc3ccccc3C(=O)NC(=N)N)CC2)c(OC)c1OC [N-(diaminomethylene)-2-((4-(2,3,4-trimethoxybenzyl)piperazin-1-yl)methyl)benzamide hydrochloride]
36.5 nM	COc1ccc(CN2CCN(Cc3cccc(C(=O)NC(=N)N)c3)CC2)c(OC)c1OC [N-(diaminomethylene)-3-((4-(2,3,4-trimethoxybenzyl)piperazin-1-yl)methyl)benzamide hydrochloride]
15 nM	CNS(=O)(=O)c1cc(C(=O)NC(=N)N)ccc1CN1CCN(Cc2ccc(OC)c(OC)c2OC)CC1 [N-(diaminomethylene)-3-(N-methylsulfamoyl)-4-((4-(2,3,4-trimethoxybenzyl)piperazin-1-yl)methyl)benzamide hydrochloride]
1150 nM	CCCNS(=O)(=O)c1cc(C(=O)NC(=N)N)ccc1CN1CCN(Cc2ccc(OC)c(OC)c2OC)CC1 [N-(diaminomethylene)-3-(N-propylsulfamoyl)-4-((4-(2,3,4-trimethoxybenzyl)piperazin-1-yl)methyl)benzamide hydrochloride]
18.7 nM	COc1ccc(CN2CCN(C(C)c3ccc(C(=O)NC(=N)N)cc3[N+](=O)[O-])CC2)c(OC)c1OC (stereo unspecified) [N-(diaminomethylene)-3-nitro-4-(1-(4-(2,3,4-trimethoxybenzyl)piperazin-1-yl)ethyl)benzamide hydrochloride]
11.5 nM	COc1ccc(CN2CCN(Cc3ccc(C(=O)NC(=N)N)cc3S(N)(=O)=O)CC2)c(OC)c1OC [N-(diaminomethylene)-3-sulfamoyl-4-((4-(2,3,4-trimethoxybenzyl)piperazin-1-yl)methyl)benzamide hydrochloride]
40.5 nM	COc1ccc(CN2CCN(C(C)c3ccc(C(=O)NC(=N)N)cc3)CC2)c(OC)c1OC (stereo unspecified) [N-(diaminomethylene)-4-(1-(4-(2,3,4-trimethoxybenzyl)piperazin-1-yl)ethyl)benzamide hydrochloride]
36.4 nM	COc1ccc(CN2CCN(Cc3ccc(C(=O)NC(=N)N)cc3)CC2)c(OC)c1OC [N-(diaminomethylene)-4-((4-(2,3,4-trimethoxybenzyl)piperazin-1-yl)methyl)benzamide hydrochloride]
14.2 nM	COc1ccc(CN2CCN(Cc3cc(C(=O)NC(=N)N)ccc3[N+](=O)[O-])CC2)c(OC)c1OC [N-(diaminomethylene)-4-nitro-3-((4-(2,3,4-trimethoxybenzyl)piperazin-1-yl)methyl)benzamide hydrochloride]
